US11413264B2, “Carbamoyl phenylalaninol analogs and uses thereof” (Jazz Pharmaceuticals Ireland Limited, priority 2017, dated 2022)
Where a name gives a salt, the structure may show the parent alone. Read-outs that look alike come from different tables or passages of the source.

Tests used:
[1] = target: T1, dopamine transporter (DAT) (Homo sapiens, UniProt Q01959); test: Competitive radioligand binding assay, dopamine transporter (antagonist radioligand); details: compound at 10 μM; for binding to the dopamine transporter (in words): summary
T1 construct: expressed in transfected cells; host or cells: CHO cells (membrane fractions)
Procedure: (§1) Compounds of the invention were tested for pharmacological activity in comparison to APC. Eight binding assays were carried out to provide a binding profile for each compound, including binding to dopamine transporter (DAT), norepinephrine transporter (NET), serotonin (5-HT) transporter (SERT), alpha2A adrenergic receptor (Alpha2A), alpha2C adrenergic receptor (Alpha2C), D2S dopamine receptor (D2S), D2L dopamine receptor (D2L), and vesicular monoamine transporter (VMAT2). Competitive binding assays using a radiolabeled ligand were carried out with each compound at 10 μM. The radioligand for each target was as follows: DAT—BTCP, NET—nisoxetine, SERT—imipramine, Alpha2A—yohimbine, Alpha2C—yohimbine, D2S—7-OH-DPAT, D2L—methylspiperone, VMAT2—tetrabenazine. The source of the receptors and transporters were prepared cell membrane fractions.

[2] = target: T2, norepinephrine transporter (NET) (Homo sapiens, UniProt P23975); test: Competitive radioligand binding assay, norepinephrine transporter (antagonist radioligand); details: compound at 10 μM; for binding to the norepinephrine transporter (in words): summary
T2 construct: expressed in transfected cells; host or cells: CHO cells (membrane fractions)
Procedure: as §1

[3] = target: T3, alpha2C adrenergic receptor (Alpha2C) (Homo sapiens, UniProt P18825); test: Competitive radioligand binding assay, α2C (antagonist radioligand); details: compound at 10 μM
T3 construct: expressed in transfected cells; host or cells: CHO cells (membrane fractions)
T3 sequence (P18825 1-462): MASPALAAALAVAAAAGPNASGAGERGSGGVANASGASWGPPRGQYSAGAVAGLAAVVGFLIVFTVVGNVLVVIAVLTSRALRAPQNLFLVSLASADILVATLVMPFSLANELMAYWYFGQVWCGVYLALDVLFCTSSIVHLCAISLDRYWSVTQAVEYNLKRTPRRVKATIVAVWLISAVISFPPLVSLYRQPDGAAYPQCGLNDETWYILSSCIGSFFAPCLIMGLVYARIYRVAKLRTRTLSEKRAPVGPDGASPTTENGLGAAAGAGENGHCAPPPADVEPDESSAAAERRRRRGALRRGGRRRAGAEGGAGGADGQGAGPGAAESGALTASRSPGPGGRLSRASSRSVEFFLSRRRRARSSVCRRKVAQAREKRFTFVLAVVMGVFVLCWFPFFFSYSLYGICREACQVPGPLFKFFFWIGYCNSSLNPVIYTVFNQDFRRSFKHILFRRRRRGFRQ
Procedure: as §1

[4] = target: T4, D2S dopamine receptor (D2S) (Homo sapiens, UniProt P14416); test: Competitive radioligand binding assay, D2S (agonist radioligand); details: compound at 10 μM
T4 construct: expressed in transfected cells; host or cells: HEK-293 cells (membrane fractions)
Procedure: as §1

[5] = target: T5, vesicular monoamine transporter (VMAT2) (Rattus norvegicus, UniProt Q01827); test: Competitive radioligand binding assay, VMAT2 transporter (antagonist radioligand); details: compound at 10 μM
T5 construct: Rat brain; from tissue; host or cells: rat brain minus cerebellum, membrane fraction
Procedure: as §1

[6] = target: T6, D2L dopamine receptor (D2L) (Homo sapiens, UniProt P14416); test: Competitive radioligand binding assay, D2L (antagonist radioligand); details: compound at 10 μM
T6 construct: expressed in transfected cells; host or cells: HEK-293 cells (membrane fractions)
Procedure: as §1

[7] = target: T7, alpha2A adrenergic receptor (Alpha2A) (Homo sapiens, UniProt P08913); test: Competitive radioligand binding assay, α2A (antagonist radioligand); details: compound at 10 μM
T7 construct: expressed in transfected cells; host or cells: CHO cells (membrane fractions)
T7 sequence (P08913 1-465): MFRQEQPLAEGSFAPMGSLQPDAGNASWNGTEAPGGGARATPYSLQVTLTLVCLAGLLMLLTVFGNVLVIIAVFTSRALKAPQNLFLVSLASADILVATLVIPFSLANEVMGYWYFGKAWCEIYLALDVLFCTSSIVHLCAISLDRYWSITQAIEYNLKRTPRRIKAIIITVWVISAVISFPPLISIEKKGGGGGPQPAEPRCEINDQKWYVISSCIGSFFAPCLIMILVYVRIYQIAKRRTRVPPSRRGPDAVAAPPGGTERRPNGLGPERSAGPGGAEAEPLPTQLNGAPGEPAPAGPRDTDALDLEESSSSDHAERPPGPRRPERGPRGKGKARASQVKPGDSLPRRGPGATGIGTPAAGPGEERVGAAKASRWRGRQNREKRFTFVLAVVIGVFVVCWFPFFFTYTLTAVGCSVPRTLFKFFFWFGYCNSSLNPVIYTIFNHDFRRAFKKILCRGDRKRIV
Procedure: as §1

[8] = target: T8, serotonin (5-HT) transporter (SERT) (Homo sapiens, UniProt P31645); test: Competitive radioligand binding assay, 5-HT transporter (antagonist radioligand); details: compound at 10 μM
T8 construct: expressed in transfected cells; host or cells: CHO cells (membrane fractions)
Procedure: as §1

[9] = Dopamine transporter, 1st individual result, read-out: % inhibition of control specific binding, 1st
[10] = Dopamine transporter, 2nd individual result, read-out: % inhibition of control specific binding, 2nd
[11] = Dopamine transporter, mean, read-out: % inhibition of control specific binding, Mean
[12] = [3H]BTCP 4 nM, human recombinant (CHO cells), read-out: % Inhibition of Binding at Each Transporter or Receptor Target, DAT
[13] = Norepinephrine transporter, 1st individual result, read-out: % inhibition of control specific binding, 1st
[14] = Norepinephrine transporter, 2nd individual result, read-out: % inhibition of control specific binding, 2nd
[15] = Norepinephrine transporter, mean, read-out: % inhibition of control specific binding, Mean
[16] = [3H]nisoxetine 1 nM, human recombinant (CHO cells), read-out: % Inhibition of Binding at Each Transporter or Receptor Target, NET
[17] = 1st individual result, read-out: % inhibition of control specific binding, 1st
[18] = 2nd individual result, read-out: % inhibition of control specific binding, 2nd
[19] = mean, read-out: % inhibition of control specific binding, Mean
[20] = D2S, 1st individual result, read-out: % inhibition of control specific binding, 1st
[21] = D2S, 2nd individual result, read-out: % inhibition of control specific binding, 2nd
[22] = D2S, mean, read-out: % inhibition of control specific binding, Mean
[23] = [3H]7-OH-DPAT 1 nM, human recombinant (HEK-293 cells), read-out: % Inhibition of Binding at Each Transporter or Receptor Target, D2S
[24] = VMAT2 transporter, single value, read-out: % inhibition of control specific binding, 1st
[25] = [3H]dihydrotetrabenazine 10 nM, rat brain (minus cerebellum), read-out: % Inhibition of Binding at Each Transporter or Receptor Target, VMAT2
[26] = D2L, 1st individual result, read-out: % inhibition of control specific binding, 1st
[27] = D2L, 2nd individual result, read-out: % inhibition of control specific binding, 2nd
[28] = D2L, mean, read-out: % inhibition of control specific binding, Mean
[29] = [3H]methyl-spiperone 0.3 nM, human recombinant (HEK-293 cells), read-out: % Inhibition of Binding at Each Transporter or Receptor Target, D2L
[30] = 5-HT transporter, 1st individual result, read-out: % inhibition of control specific binding, 1st
[31] = 5-HT transporter, 2nd individual result, read-out: % inhibition of control specific binding, 2nd
[32] = 5-HT transporter, mean, read-out: % inhibition of control specific binding, Mean
[33] = [3H]imipramine 2 nM, human recombinant (CHO cells), read-out: % Inhibition of Binding at Each Transporter or Receptor Target, SERT

T1 sequence (Q01959 whole entry): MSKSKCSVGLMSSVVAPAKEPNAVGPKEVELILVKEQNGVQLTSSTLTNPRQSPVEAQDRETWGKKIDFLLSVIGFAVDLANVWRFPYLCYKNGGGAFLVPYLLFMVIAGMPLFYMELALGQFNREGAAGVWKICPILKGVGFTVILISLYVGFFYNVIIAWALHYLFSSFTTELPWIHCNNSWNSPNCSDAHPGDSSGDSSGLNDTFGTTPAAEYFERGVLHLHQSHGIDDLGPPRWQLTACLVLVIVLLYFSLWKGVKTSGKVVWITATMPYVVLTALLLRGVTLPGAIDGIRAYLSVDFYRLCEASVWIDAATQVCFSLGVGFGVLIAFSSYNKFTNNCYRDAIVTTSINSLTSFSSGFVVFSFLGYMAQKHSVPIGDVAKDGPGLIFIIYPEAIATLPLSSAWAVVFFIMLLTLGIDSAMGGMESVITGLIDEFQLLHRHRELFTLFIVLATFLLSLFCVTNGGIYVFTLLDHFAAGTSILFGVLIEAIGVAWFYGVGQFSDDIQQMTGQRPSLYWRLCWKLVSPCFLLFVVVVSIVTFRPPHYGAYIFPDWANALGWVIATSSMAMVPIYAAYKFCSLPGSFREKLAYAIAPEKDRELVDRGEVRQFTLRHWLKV
T4 sequence (P14416 1-414 isoform P14416-2): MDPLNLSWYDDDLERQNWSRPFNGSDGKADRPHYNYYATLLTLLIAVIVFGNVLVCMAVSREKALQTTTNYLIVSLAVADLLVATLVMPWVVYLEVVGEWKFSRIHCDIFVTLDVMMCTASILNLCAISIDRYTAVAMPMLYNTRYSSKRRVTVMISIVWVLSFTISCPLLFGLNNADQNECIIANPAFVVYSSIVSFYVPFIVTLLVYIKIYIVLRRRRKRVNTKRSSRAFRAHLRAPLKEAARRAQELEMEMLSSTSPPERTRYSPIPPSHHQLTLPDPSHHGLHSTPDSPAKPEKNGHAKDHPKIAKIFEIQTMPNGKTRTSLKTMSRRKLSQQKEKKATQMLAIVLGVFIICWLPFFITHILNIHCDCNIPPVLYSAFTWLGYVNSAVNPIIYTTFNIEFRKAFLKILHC
T5 sequence (Q01827 whole entry): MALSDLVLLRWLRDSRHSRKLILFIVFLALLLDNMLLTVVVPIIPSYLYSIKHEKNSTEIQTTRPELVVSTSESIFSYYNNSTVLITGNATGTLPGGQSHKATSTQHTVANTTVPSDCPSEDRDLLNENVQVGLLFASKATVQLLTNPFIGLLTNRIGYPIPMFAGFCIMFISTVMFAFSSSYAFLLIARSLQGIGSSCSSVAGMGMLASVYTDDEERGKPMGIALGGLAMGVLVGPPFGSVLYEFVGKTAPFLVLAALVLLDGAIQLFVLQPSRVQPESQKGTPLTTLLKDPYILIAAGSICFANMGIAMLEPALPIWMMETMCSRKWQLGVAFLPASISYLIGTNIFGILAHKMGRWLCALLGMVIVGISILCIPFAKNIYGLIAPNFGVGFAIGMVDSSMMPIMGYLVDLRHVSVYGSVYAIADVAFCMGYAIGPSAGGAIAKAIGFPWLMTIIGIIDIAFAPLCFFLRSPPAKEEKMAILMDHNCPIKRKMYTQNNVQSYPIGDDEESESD
T8 sequence (P31645 whole entry): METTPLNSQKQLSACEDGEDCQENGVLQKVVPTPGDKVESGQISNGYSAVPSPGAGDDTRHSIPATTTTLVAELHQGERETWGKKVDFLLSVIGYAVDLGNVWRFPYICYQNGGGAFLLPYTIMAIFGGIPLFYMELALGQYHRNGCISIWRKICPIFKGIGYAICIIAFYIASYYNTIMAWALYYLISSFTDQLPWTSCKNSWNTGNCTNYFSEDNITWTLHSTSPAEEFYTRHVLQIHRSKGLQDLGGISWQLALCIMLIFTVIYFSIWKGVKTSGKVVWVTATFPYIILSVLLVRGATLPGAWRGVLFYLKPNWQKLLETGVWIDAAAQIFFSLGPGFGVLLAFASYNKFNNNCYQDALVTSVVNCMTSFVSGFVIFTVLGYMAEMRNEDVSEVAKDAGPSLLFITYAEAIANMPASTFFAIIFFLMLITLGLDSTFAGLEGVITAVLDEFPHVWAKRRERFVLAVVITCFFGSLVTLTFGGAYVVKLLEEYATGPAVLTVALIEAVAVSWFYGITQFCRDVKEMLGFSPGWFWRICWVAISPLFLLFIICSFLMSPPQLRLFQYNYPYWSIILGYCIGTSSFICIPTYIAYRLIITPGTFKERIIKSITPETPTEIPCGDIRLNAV
T2 sequence (P23975 whole entry): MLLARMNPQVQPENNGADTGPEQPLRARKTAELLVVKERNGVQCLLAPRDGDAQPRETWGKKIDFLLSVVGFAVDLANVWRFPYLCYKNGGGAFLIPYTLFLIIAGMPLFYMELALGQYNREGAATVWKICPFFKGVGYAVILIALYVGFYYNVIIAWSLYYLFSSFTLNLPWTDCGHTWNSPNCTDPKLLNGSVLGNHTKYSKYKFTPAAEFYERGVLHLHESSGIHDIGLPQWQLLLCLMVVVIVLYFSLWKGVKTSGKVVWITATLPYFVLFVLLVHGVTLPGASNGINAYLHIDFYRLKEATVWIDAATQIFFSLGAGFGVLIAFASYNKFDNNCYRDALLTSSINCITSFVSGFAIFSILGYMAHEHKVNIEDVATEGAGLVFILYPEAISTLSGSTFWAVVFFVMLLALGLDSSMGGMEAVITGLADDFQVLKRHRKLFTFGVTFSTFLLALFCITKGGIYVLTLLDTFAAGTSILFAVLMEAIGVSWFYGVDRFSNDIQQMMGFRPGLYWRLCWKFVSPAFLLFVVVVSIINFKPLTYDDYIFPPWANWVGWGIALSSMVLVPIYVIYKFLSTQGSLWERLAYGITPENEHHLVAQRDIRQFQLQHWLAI
T6 sequence (P14416 whole entry): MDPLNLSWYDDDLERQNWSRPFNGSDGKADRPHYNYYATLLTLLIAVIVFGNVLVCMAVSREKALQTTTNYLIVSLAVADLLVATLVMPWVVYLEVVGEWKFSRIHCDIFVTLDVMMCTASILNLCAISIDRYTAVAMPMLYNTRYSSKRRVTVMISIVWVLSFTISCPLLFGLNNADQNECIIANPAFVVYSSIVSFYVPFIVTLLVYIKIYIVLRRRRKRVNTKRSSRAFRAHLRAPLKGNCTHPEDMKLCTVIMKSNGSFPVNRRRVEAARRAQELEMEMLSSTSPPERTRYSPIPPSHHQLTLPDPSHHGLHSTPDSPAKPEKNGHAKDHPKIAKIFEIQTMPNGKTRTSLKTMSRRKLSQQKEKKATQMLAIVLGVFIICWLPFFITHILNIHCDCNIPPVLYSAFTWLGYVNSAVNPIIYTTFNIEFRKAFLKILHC

| Compound | inhibition at 10 µM [1, 9] [%] | inhibition at 10 µM [1, 10] [%] | inhibition at 10 µM [1, 11] [%] | inhibition at 10 µM [1, 12] [%] | binding to the dopamine transporter (in words) [1] | inhibition at 10 µM [2, 13] [%] | inhibition at 10 µM [2, 14] [%] | inhibition at 10 µM [2, 15] [%] | inhibition at 10 µM [2, 16] [%] | binding to the norepinephrine transporter (in words) [2] | inhibition at 10 µM [3, 17] [%] | inhibition at 10 µM [3, 18] [%] | inhibition at 10 µM [3, 19] [%] | inhibition at 10 µM [4, 20] [%] | inhibition at 10 µM [4, 21] [%] | inhibition at 10 µM [4, 22] [%] | inhibition at 10 µM [4, 23] [%] | inhibition at 10 µM [5, 24] [%] | inhibition at 10 µM [5, 25] [%] | inhibition at 10 µM [6, 26] [%] | other results |
| --- | --- | --- | --- | --- | --- | --- | --- | --- | --- | --- | --- | --- | --- | --- | --- | --- | --- | --- | --- | --- | --- |
| NC(=S)OC[C@H](N)Cc1ccccc1 [Compound 8, (R)—O-(2-Amino-3-phenylpropyl) carbamothioate dihydrochloride] | 67.9 | 95.4 | 81.6 | 81.6 | substantial | 29.5 | 46.1 | 37.8 | 37.8 | substantial binding | 50.6 | 47 | 48.8 | 33.5 | 21.4 | 27.4 | 27.4 | 6 | 6 | -0.5 | inhibition at 10 µM [6, 27]: 2.7%; inhibition at 10 µM [6, 28]: 1.1%; inhibition at 10 µM [6, 29]: 1.1%; inhibition at 10 µM [7, 17]: 60%; inhibition at 10 µM [7, 18]: 61.3%; inhibition at 10 µM [7, 19]: 60.6%; inhibition at 10 µM [8, 30]: -1.9%; inhibition at 10 µM [8, 31]: -2.4%; inhibition at 10 µM [8, 32]: -2.1%; inhibition at 10 µM [8, 33]: -2.1% |
| N[C@@H](COS(N)(=O)=O)Cc1ccccc1 [Compound 9, (R)-2-Amino-3-phenylpropyl sulfamate hydrochloride] | 26.4 | 44 | 35.2 | 35.2 | substantial | -3.7 | 14 | 5.1 | 5.1 | substantial binding | 65.8 | 60.9 | 63.4 | 45.3 | 33.7 | 39.5 | 39.5 | 16 | 16 | -2.2 | inhibition at 10 µM [6, 27]: -6.8%; inhibition at 10 µM [6, 28]: -4.5%; inhibition at 10 µM [6, 29]: -4.5%; inhibition at 10 µM [7, 17]: 65.7%; inhibition at 10 µM [7, 18]: 70.8%; inhibition at 10 µM [7, 19]: 68.3%; inhibition at 10 µM [8, 30]: -1.7%; inhibition at 10 µM [8, 31]: -3.7%; inhibition at 10 µM [8, 32]: -2.7%; inhibition at 10 µM [8, 33]: -2.7% |
| NC(=O)SC[C@H](N)Cc1ccccc1 [Compound 10, (R)—S-(2-Amino-3-phenylpropyl) carbamothioate hydrochloride] | 85.3 | 87.3 | 86.3 | 86.3 | substantial | 91.7 | 91.7 | 91.7 | 91.7 | substantial binding | 89.3 | 92.4 | 90.9 | 89.5 | 90.5 | 90 | 90 | 5 | 5 | 33.7 | inhibition at 10 µM [6, 27]: 35.6%; inhibition at 10 µM [6, 28]: 34.7%; inhibition at 10 µM [6, 29]: 34.7%; inhibition at 10 µM [7, 17]: 64.4%; inhibition at 10 µM [7, 18]: 46.1%; inhibition at 10 µM [7, 19]: 55.3%; inhibition at 10 µM [8, 30]: 21.7%; inhibition at 10 µM [8, 31]: 22%; inhibition at 10 µM [8, 32]: 21.9%; inhibition at 10 µM [8, 33]: 21.9% |
